Results from PubChem BioAssay (NCI).
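A five-concentration, 48-hour dose response in 96-well plates underlies each endpoint, interpolated linearly between surrounding concentrations. GI50: concentration for 50% inhibition of growth. TGI marks complete inhibition of growth.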

Key:
Assay in all cases: growth of human tumour cells (NCI), 48 h
SK-OV-3 ovarian = system: SK-OV-3 ovarian
NCI-H226 lung = system: NCI-H226 lung
HOP-92 NSCLC = system: HOP-92 NSCLC
SNB-19 CNS = system: SNB-19 CNS
OVCAR-4 ovarian = system: OVCAR-4 ovarian
K-562 leukemia = system: K-562 leukemia
SK-MEL-2 melanoma = system: SK-MEL-2 melanoma
U251 CNS = system: U251 CNS
DU-145 prostate = system: DU-145 prostate
UACC-257 melanoma = system: UACC-257 melanoma
BT-549 breast = system: BT-549 breast
NCI-H522 lung = system: NCI-H522 lung
MALME-3M melanoma = system: MALME-3M melanoma
EKVX NSCLC = system: EKVX NSCLC
COLO 205 colon = system: COLO 205 colon
786-0 renal = system: 786-0 renal
SK-MEL-28 melanoma = system: SK-MEL-28 melanoma
RXF 393 renal = system: RXF 393 renal
HOP-62 NSCLC = system: HOP-62 NSCLC
HT29 colon = system: HT29 colon
ACHN renal = system: ACHN renal
UACC-62 melanoma = system: UACC-62 melanoma
OVCAR-5 ovarian = system: OVCAR-5 ovarian
KM12 colon = system: KM12 colon
PC-3 prostate = system: PC-3 prostate
TK-10 renal = system: TK-10 renal
UO-31 renal = system: UO-31 renal
SF-268 CNS = system: SF-268 CNS
HCT-15 colon = system: HCT-15 colon
SR leukemia = system: SR leukemia
IGROV1 ovarian = system: IGROV1 ovarian
M14 melanoma = system: M14 melanoma
SF-295 CNS = system: SF-295 CNS
T-47D breast = system: T-47D breast
NCI-H23 lung = system: NCI-H23 lung
RPMI-8226 leukemia = system: RPMI-8226 leukemia
MOLT-4 leukemia = system: MOLT-4 leukemia
HL-60(TB) leukemia = system: HL-60(TB) leukemia
A498 renal = system: A498 renal
SW-620 colon = system: SW-620 colon
OVCAR-8 ovarian = system: OVCAR-8 ovarian
SF-539 CNS = system: SF-539 CNS
CAKI-1 renal = system: CAKI-1 renal
HS 578T breast = system: HS 578T breast
OVCAR-3 ovarian = system: OVCAR-3 ovarian
A549 NSCLC = system: A549 NSCLC
HCC-2998 colon = system: HCC-2998 colon
HCT-116 colon = system: HCT-116 colon
NCI/ADR-RES ovarian = system: NCI/ADR-RES ovarian
LOX IMVI melanoma = system: LOX IMVI melanoma
SK-MEL-5 melanoma = system: SK-MEL-5 melanoma
MDA-MB-231 breast = system: MDA-MB-231 breast
MDA-MB-435 = system: MDA-MB-435
CCRF-CEM leukemia = system: CCRF-CEM leukemia
SN12C renal = system: SN12C renal
MCF7 breast = system: MCF7 breast
NCI-H460 lung = system: NCI-H460 lung
SNB-75 CNS = system: SNB-75 CNS

Fc1ccc(-c2nnc3sc(-c4cc(Cl)cc(Cl)c4)nn23)cc1Cl
GI50 (SK-OV-3 ovarian): 24.6 µM
TGI (SK-OV-3 ovarian): 46.3 µM
GI50 (NCI-H226 lung): 34.3 µM
TGI (NCI-H226 lung): > 100 µM
GI50 (HOP-92 NSCLC): 20.5 µM
TGI (HOP-92 NSCLC): 52.4 µM
GI50 (SNB-19 CNS): 32.3 µM
TGI (SNB-19 CNS): > 100 µM
GI50 (OVCAR-4 ovarian): 17.4 µM
TGI (OVCAR-4 ovarian): 53.4 µM
GI50 (K-562 leukemia): > 100 µM
TGI (K-562 leukemia): > 100 µM
GI50 (SK-MEL-2 melanoma): > 100 µM
TGI (SK-MEL-2 melanoma): > 100 µM
GI50 (U251 CNS): 17.3 µM
TGI (U251 CNS): 43.6 µM
GI50 (DU-145 prostate): > 100 µM
TGI (DU-145 prostate): > 100 µM
GI50 (UACC-257 melanoma): 38.2 µM
TGI (UACC-257 melanoma): > 100 µM
GI50 (BT-549 breast): 87.1 µM
TGI (BT-549 breast): > 100 µM
GI50 (NCI-H522 lung): 49.7 µM
TGI (NCI-H522 lung): > 100 µM
GI50 (MALME-3M melanoma): 37.7 µM
TGI (MALME-3M melanoma): > 100 µM
GI50 (EKVX NSCLC): > 100 µM
TGI (EKVX NSCLC): > 100 µM
GI50 (COLO 205 colon): 56.6 µM
TGI (COLO 205 colon): > 100 µM
GI50 (786-0 renal): 29.7 µM
TGI (786-0 renal): > 100 µM
GI50 (SK-MEL-28 melanoma): > 100 µM
TGI (SK-MEL-28 melanoma): > 100 µM
GI50 (RXF 393 renal): 1.51 µM
TGI (RXF 393 renal): 26.4 µM
GI50 (HOP-62 NSCLC): 20.3 µM
TGI (HOP-62 NSCLC): 42 µM
GI50 (HT29 colon): 28.1 µM
TGI (HT29 colon): 83.3 µM
GI50 (ACHN renal): 21 µM
TGI (ACHN renal): 45.6 µM
GI50 (UACC-62 melanoma): 31.1 µM
TGI (UACC-62 melanoma): > 100 µM
GI50 (OVCAR-5 ovarian): 70.1 µM
TGI (OVCAR-5 ovarian): > 100 µM
GI50 (KM12 colon): > 100 µM
TGI (KM12 colon): > 100 µM
GI50 (PC-3 prostate): 61.3 µM
TGI (PC-3 prostate): > 100 µM
GI50 (TK-10 renal): 20.5 µM
TGI (TK-10 renal): 44 µM
GI50 (UO-31 renal): 39.6 µM
TGI (UO-31 renal): > 100 µM
GI50 (SF-268 CNS): 53 µM
TGI (SF-268 CNS): > 100 µM
GI50 (HCT-15 colon): 72.5 µM
TGI (HCT-15 colon): > 100 µM
GI50 (SR leukemia): 13.3 µM
TGI (SR leukemia): 43.8 µM
GI50 (IGROV1 ovarian): > 100 µM
TGI (IGROV1 ovarian): > 100 µM
GI50 (M14 melanoma): 41.3 µM
TGI (M14 melanoma): > 100 µM
GI50 (SF-295 CNS): 74.2 µM
TGI (SF-295 CNS): > 100 µM
GI50 (T-47D breast): > 100 µM
TGI (T-47D breast): > 100 µM
GI50 (NCI-H23 lung): 37.2 µM
TGI (NCI-H23 lung): > 100 µM
GI50 (RPMI-8226 leukemia): 46.8 µM
TGI (RPMI-8226 leukemia): > 100 µM
GI50 (MOLT-4 leukemia): 72.9 µM
TGI (MOLT-4 leukemia): > 100 µM
GI50 (HL-60(TB) leukemia): 99.1 µM
TGI (HL-60(TB) leukemia): > 100 µM
GI50 (A498 renal): 29 µM
TGI (A498 renal): 77.9 µM
GI50 (SW-620 colon): 45 µM
TGI (SW-620 colon): > 100 µM
GI50 (OVCAR-8 ovarian): 46.6 µM
TGI (OVCAR-8 ovarian): > 100 µM
GI50 (SF-539 CNS): > 100 µM
TGI (SF-539 CNS): > 100 µM
GI50 (CAKI-1 renal): 33.5 µM
TGI (CAKI-1 renal): 96.4 µM
GI50 (HS 578T breast): 45.2 µM
TGI (HS 578T breast): > 100 µM
GI50 (OVCAR-3 ovarian): > 100 µM
TGI (OVCAR-3 ovarian): > 100 µM
GI50 (A549 NSCLC): 24.4 µM
TGI (A549 NSCLC): 61.8 µM
GI50 (HCC-2998 colon): > 100 µM
TGI (HCC-2998 colon): > 100 µM
GI50 (HCT-116 colon): 18.5 µM
TGI (HCT-116 colon): 44.2 µM
GI50 (NCI/ADR-RES ovarian): 34.9 µM
TGI (NCI/ADR-RES ovarian): > 100 µM
GI50 (LOX IMVI melanoma): 32.8 µM
TGI (LOX IMVI melanoma): > 100 µM
GI50 (SK-MEL-5 melanoma): > 100 µM
TGI (SK-MEL-5 melanoma): > 100 µM
GI50 (MDA-MB-231 breast): 17.2 µM
TGI (MDA-MB-231 breast): 39.4 µM
GI50 (MDA-MB-435): > 100 µM
TGI (MDA-MB-435): > 100 µM
GI50 (CCRF-CEM leukemia): 29 µM
TGI (CCRF-CEM leukemia): 86.8 µM
GI50 (SN12C renal): 34.2 µM
TGI (SN12C renal): > 100 µM
GI50 (MCF7 breast): 30.5 µM
TGI (MCF7 breast): > 100 µM
GI50 (NCI-H460 lung): 39.3 µM
TGI (NCI-H460 lung): > 100 µM
GI50 (SNB-75 CNS): 13 µM
TGI (SNB-75 CNS): 30.1 µM
